From patent US20190282616A1, “MACROPHAGES REDIRECT PHAGOCYTOSIS BY NON-PROFESSIONAL PHAGOCYTES AND INFLUENCE INFLAMMATION” (University of Virginia Patent Foundation, priority 2016, published 2019) come the findings set out here.

Data set [1] relates to LR73 cells. Particulars: for effect on IGF-1 induced increase in liposome uptake / basal uptake of liposomes: LR73 cells; for effect on IGF-1 induced increase in liposome uptake: inhibitor plus IGF-1; for basal uptake of liposomes: inhibitor without IGF-1; for uptake of PtdSer containing liposomes by LR73 cells: liposomes of 150-200 nm, IGF-1 50 ng/mL, EGF or VEGF 100 ng/mL each. On the procedure: (§1) LR73, SVEC-40, BEAS-2B, and 16HBE14o-cells were seeded in a 24 well plate. Thymocytes were isolated from 4-6 week old mice and induced to undergo apoptosis with dexamethasone. Thymocytes or prepared microvesicles were then stained with either CypHer5E (GE Healthcare, PA15401) or TAMRA (Invitrogen, C-1171). LR73 and SVEC-40 cells were incubated with apoptotic thymocytes at a 1:10 phagocyte to target ratio, BEAS-2B at a 1:5 phagocyte to target ratio, and 16HBE14o—at a 1:20 phagocyte to target ratio for 2 hours. Mouse IGF-I (Sigma-Aldrich), human IGF-I (Sigma-Aldrich), human IGF-II (Sigma-Aldrich) were added to the phagocytes at the same time as addition of apoptotic targets. For IGFBP3 studies, IGFBP3 (Sigma-Aldrich) was added to media or supernatant from J774 cells for one hour to allow IGFBP3 to bind to any available IGF-I, then the mix is added to phagocytes along with apoptotic targets. For all pharmacological studies, phagocytes were pre-incubated with the compounds listed below for one hour prior to addition of apoptotic targets: cytochalasin D (Sigma-Aldrich, C8273, 1 μM), Latrunculin A (Tocris, 3973, 150 nM), CK-666 (Tocris, 3950, 25 μM-100 μM), OSI-906 (Selleckchem, S1091, 5 nM-40 nM), NVP-AEW541 (Selleckchem, S1034, 25 nM-100 nM), Rapamycin (Sigma-Aldrich, R0395, […]), MK-2206 2HCl (Selleckchem, S1078, 10 nM-1 U0126-EtOH (Selleckchem, S1102, […]), Wortmannin (Sigma-Aldrich, W1628, 50 nM-200 nM), Y27632 (Calbiochem, 688000, 3.75 μM-15 μM), or GSK269962 (Tocris, 4009, 80 nM-2 μM). […] Targets were then washed off three times with PBS, and the cells were dissociated from the plate with trypsin and the engulfment assessed by flow cytometry.
Liposomes were prepared by dissolving the lipids (phosphatidylserine, dioleoyl phosphatidylcholine, cholesterol and the lipid DiD dye) in chloroform, evaporating chloroform under flow of argon gas in a glass vial, then subjecting the lipid layer to overnight lyophilization to remove traces of organic solvent. Then normal saline was added for hydration, and intense vortexing was preformed to prepare multilamellar vesicles (MIN). Liposomes were repeatedly filtered through a 0.2 um Nuclepore polycarbonate filter to prepare smaller particles. Particle size was verified by dynamic light scattering using Nicomp 370.

Data set [2] relates to LR73 cells. Briefly: In vitro engulfment assay: apoptotic thymocyte uptake by LR73 cells. It counts as cell-based, hamster. Particulars: for basal phagocytosis of apoptotic cells with inhibitor alone: without IGF-1; for reversal of IGF-1 mediated engulfment suppression in LR73 cells: agent added in the presence of IGF-1; for apoptotic cell uptake (engulfment) by LR73 cells: soluble mediator alone, IGF-I at concentrations reported in serum (100-600 ng/mL), other factors over a range of concentrations; for apoptotic cell uptake by LR73 cells: human insulin or human IGF-II, at higher concentrations than IGF-1. On the procedure: as §1

The test system of data set [3] is IGF-1R, Akt and Erk1/2 phosphorylation in LR73 cells. Briefly: Immunoblotting of signaling in LR73 cells. It counts as cell-based, hamster. The following applies: for phosphorylation of IGF-1R and Erk: LR73 cells stimulated with IGF-1 and treated with inhibitor; for early downstream signaling events (Erk1/2 phosphorylation): serum-starved LR73 cells, 100 ng/mL growth factor. On the procedure: LR73, J774, or BEAS-2B cells were seeded in a 60 mm dish at a concentration of 5×10^5. […] Cells were lysed in RIPA buffer and used in Western blots. The blots were probed for phospho-Erk1/2 (Cell Signaling Technology, #4370), phospho-Akt (Cell Signaling Technology, #4060), phospho-IGF-1R (Cell Signaling, #3024), total Erk2 (Santa Cruz Biotechnology, #sc-154-G), total Akt (Cell Signaling Technology, #4691), total IGF-1R (Cell Signaling, #9750), and anti-B-actin-HRP (Sigma-Aldrich, #A3854) followed by chemiluminescence detection.
For orientation: Immunoblotting shows a protein as a band on a membrane.

Another data set concerns peritoneal macrophages. Briefly: IGF-1 secretion by peritoneal macrophages (ELISA). It counts as cell-based, mouse. The following applies: treated with IL-4. On the procedure: To obtain bone-marrow derived macrophages, femurs were removed from 8 week old mice and flushed with 5 mL of sterile PBS containing 5% FBS. The cell suspension was centrifuged, treated with red blood cell lysis buffer, washed, and then plated onto sterile petri dishes in DMEM containing 10% L929 media, 10% FBS and 1% penicillin/streptomycin/glutamine (PSQ). Media was replenished every 2 to 3 days and differentiated cells were used at day 6 post-harvest. Resident peritoneal macrophages were obtained by flushing the peritoneal cavity of mice with 10 mL of cold PBS containing 5% FBS. Collected cells were spun down, resuspended in X-VIVO 10 (Lonza) and plated at a concentration of 3×10^5 cells per well in a 24 well plate for IGF-1 secretion assays, and 5×10^5 per well in a 24 well plate for engulfment assays. Floating cells were washed the next day and remaining peritoneal macrophages were used 2 days after isolation. […]
IL-4, IL-5, IL-6, and CCL-11/Eotaxin-1 in the BAL fluid of mice that were sensitized with HDM (regimen #1) were quantified by a multiplex Luminex performed by the University of Virginia Flow Cytometry Core Facility. Secretion of IGF-1 from J774 cells, peritoneal macrophages, and BAL fluids, as well as TSLP from BAL fluids, were measured by ELISA (R&D Systems).
A general note: ELISA stands for enzyme-linked immunosorbent assay.

The test system of another data set is IGF-1 in BAL fluid. Briefly: In vivo cytokine administration: IGF-1 in BAL fluid. Particulars: 1 μg recombinant mouse cytokine intranasally for two consecutive days. On the procedure: Mice were administered intranasally with 1 μg of recombinant mouse IL-4, IL-5, or IL-13 (eBiosciences), 1×10^6 apoptotic Jurkat cells, or PBS as control, for two consecutive days. On the third day, BAL fluid was recovered and centrifuged; the supernatant was stored at −80° C. for subsequent cytokine analysis. IL-4, IL-5, IL-6, and CCL-11/Eotaxin-1 in the BAL fluid of mice that were sensitized with HDM (regimen #1) were quantified by a multiplex Luminex performed by the University of Virginia Flow Cytometry Core Facility. Secretion of IGF-1 from J774 cells, peritoneal macrophages, and BAL fluids, as well as TSLP from BAL fluids, were measured by ELISA (R&D Systems).

The subject of data set [4] is MH-S alveolar macrophages. Briefly: Microvesicle secretion by MH-S alveolar macrophages. Type of data set: cell-based, mouse. The following applies: IL-4 treated MH-S alveolar macrophages, counted using qNano. On the procedure: MH-S, mouse alveolar macrophages, or primary mouse alveolar macrophages were seeded. After adherence, the media was replaced with 0.22 μm filtered media to remove any contaminating microvesicles. After an overnight incubation, the supernatant was harvested and spun at 5000×g to remove cell debris and apoptotic bodies. The pellet was discarded and the resulting supernatant was filtered through 0.8 μm filter and spun again at 17,000×g. The pelleted microvesicles were then washed with HBSS and then spun again at 17,000×g. For engulfment assays, microvesicles were stained with TAMRA for 20 minutes and then added to BEAS-2B cells for 90 minutes. For flow cytometry, purified particles were stained with CD11c, Siglec F, and Annexin V (BD Biosciences, Cat. No. 550475) and processed on Imagestream™ imaging flow cytometer (Amnis). Microvesicle size distribution was characterized using qNano (IZON Science) with a NP400 membrane and at least 500 particles were counted. Microvesicles were prepared for cryo-electron microscopy using standard methods and imaged on an FEI TF20.

In the next data set the test system is IC-21 cells. Briefly: Apoptotic thymocyte engulfment by IC-21 cells. It counts as cell-based. The following applies: indicated concentrations of mouse IGF-1 or human insulin.

Consider `Cc1[nH]c2ccccc2c1CCNC(=O)c1ccccc1F` [CK-666], for which, in the data set with LR73 cells [1], the “effect on IGF-1 induced increase in liposome uptake” value (“effect on IGF-1 induced increase” for short) is on record as “minimal effect”.
As for `C=C1[C@@H](C)[C@H]2[C@H](Cc3ccccc3)NC(=O)[C@]23[C@H](OC(C)=O)/C=C/[C@@](C)(O)C(=O)[C@@H](C)C/C=C/[C@H]3[C@@H]1O` [Cytochalasin D], the “basal phagocytosis of apoptotic cells with inhibitor alone” value in the data set with LR73 cells [2] is reported as “potently inhibited phagocytosis of apoptotic cells”. Moreover, in the data set with LR73 cells [1], the “effect on IGF-1 induced increase” value is recorded as “blocked the IGF-1 induced increase in liposome uptake” and the “basal uptake of liposomes” value is listed as “did not affect the basal uptake of liposomes”. For the same molecule, the “morphology of treated LR73 cells” value in the data set with LR73 cells [1] (for the duration of the assay) is “appeared morphologically normal”.
`CCn1c(-c2nonc2N)nc2cnc(Oc3cccc(NC(=O)c4ccc(OCCN5CCOCC5)cc4)c3)cc21` [GSK269962, reference compound]: in the data set with LR73 cells [2], the “reversal of IGF-1 mediated engulfment suppression in LR73 cells” value (shortened to “reversal … in LR73 cells”) is “does not appear to rescue IGF-1 induced engulfment suppression” and the “basal phagocytosis of apoptotic cells with inhibitor alone” value is “basally increases phagocytosis of apoptotic cells”.
With `C/C1=C/C(=O)O[C@@H]2C[C@@H](CC[C@H](C)/C=C\C=C\CC1)O[C@@](O)([C@@H]1CSC(=O)N1)C2` [Latrunculin A], in the data set on LR73 cells [1], the “effect on IGF-1 induced increase” value is given as “reversed IGF-1 mediated enhancement of liposome uptake” and the “basal uptake of liposomes” value is “without affecting the basal uptake of liposomes”.
Regarding `Nc1ncnc2c1c(-c1cccc(OCc3ccccc3)c1)cn2C1CC(CN2CCC2)C1` (centres unmarked) [NVP-AEW541, reference compound], the “reversal … in LR73 cells” value with LR73 cells [2] is “rescued the engulfment capacity of LR73 cells”. Besides, the “phosphorylation of IGF-1R and Erk” value in data set [3] is “concomitant decrease in phosphorylation of IGF-1R and Erk”.
`C[C@]1(O)C[C@@H](c2nc(-c3ccc4ccc(-c5ccccc5)nc4c3)c3c(N)nccn32)C1` [OSI-906, reference compound]: in the data set with LR73 cells [2], the “reversal … in LR73 cells” value is “rescued the engulfment capacity of LR73 cells”. The “effect on IGF-1 induced increase” value with LR73 cells [1] is “reduced the increased liposome uptake”. Also, in data set [3], the “phosphorylation of IGF-1R and Erk” value is “concomitant decrease in phosphorylation of IGF-1R and Erk”.
On to `C[C@@H](N)[C@H]1CC[C@H](C(=O)Nc2ccncc2)CC1` [Y27632, reference compound], for which, in the data set with LR73 cells [2], the “reversal … in LR73 cells” value is reported as “does not appear to rescue IGF-1 induced engulfment suppression” and the “basal phagocytosis of apoptotic cells with inhibitor alone” value is “basally increases phagocytosis of apoptotic cells”.
Consider “EGF: growth factor of the tested panel of soluble mediators (NSDSECPLSHDGYCLHDGVCMYIEALDKYACNCVVGYIGERCQYRDLKWWELR; Epidermal growth factor; UniProt P01133 971-1023, looked up)”, for which the “apoptotic cell uptake (engulfment) by LR73 cells” value in the data set on LR73 cells [2] is on record as “did not alter engulfment”. The “uptake of PtdSer containing liposomes by LR73 cells” value in the data set on LR73 cells [1] was “not seen”. In addition, in data set [3], the “early downstream signaling events (Erk1/2 phosphorylation)” value (“early downstream signaling events” below) was “elicited early downstream signaling events”.
In the case of “IGFBP3: IGF binding protein that stabilizes and sequesters IGF-1 (Sigma-Aldrich)”, the “reversal of suppression by macrophage produced IGF-1” value in the data set with LR73 cells [2] (J774 supernatant incubated with IGFBP3, LR73 cells) is listed as “reversed by IGFBP3 addition”. In the data set with LR73 cells [2], the “reversal … in LR73 cells” value is given as “restored the phagocytic capability of LR73 cells”. Further, in the data set with LR73 cells [2] (supernatant of unstimulated J774 cells plus IGFBP3), the “basal phagocytosis by LR73 cells” value was “increases the basal phagocytosis”.
Regarding “IL-4: cytokine; recombinant mouse IL-4 (eBiosciences)”, the “IGF-1 secretion by peritoneal macrophages” value in the data set with peritoneal macrophages is reported as “confirmed IGF-1 secretion”. Also, the “IGF-1 in bronchoalveolar lavage (BAL) fluid” value in the data set on IGF-1 in BAL fluid is given as “increased level of IGF-1”. Besides, the “microvesicles secretion by macrophages” value in data set [4] was “increased microvesicles secretion”.
On to “PDGF-AA: growth factor of the tested panel of soluble mediators”, for which, in the data set with LR73 cells [2], the “apoptotic cell uptake (engulfment) by LR73 cells” value is given as “did not alter engulfment”. For the same molecule, in data set [3], the “early downstream signaling events” value is recorded as “elicited early downstream signaling events”.
Consider VEGF, for which the “apoptotic cell uptake (engulfment) by LR73 cells” value in the data set on LR73 cells [2] was “did not alter engulfment”. In addition, in the data set on LR73 cells [1], the “uptake of PtdSer containing liposomes by LR73 cells” value is “not seen”. Moreover, the “early downstream signaling events” value in data set [3] is listed as “elicited early downstream signaling events”.
With fibroblast growth factor 2 [FGF2], the “apoptotic cell uptake (engulfment) by LR73 cells” value in the data set on LR73 cells [2] is on record as “did not alter engulfment”. In data set [3], the “early downstream signaling events” value was “elicited early downstream signaling events”.
As for insulin-like growth factor II [IGF-II], the “apoptotic cell uptake by LR73 cells” value in the data set with LR73 cells [2] is given as “could also reduce apoptotic cell uptake”.
In the case of “insulin: shares structural similarity with IGF-1, lower affinity for IGF-1R”, the “apoptotic cell uptake by LR73 cells” value in the data set on LR73 cells [2] is recorded as “could also reduce apoptotic cell uptake”. For the same molecule, the “corpse uptake by IC-21 cells” value with IC-21 cells was “engulf apoptotic cells at normal capacity”.
